One data set concerns DNFB-induced dermatitis. The data set is described as follows: DNFB contact dermatitis in mice, ear thickness. The format is in vivo, mouse. Here is the method: 2,4-dinitrofluorobenzene (DNFB) (Sigma-Aldrich, Italy) was dissolved in acetone. On day 1 and 2, mice (CD1, 25-30 g, Charles River, Calco, Italy) were sensitized on the skin of the abdomen with hapten (20 μL of 0.5% DNFB). After 5 days, on day 7, mice were challenged with hapten (20 μL of 0.2% DNFB) in the earlobe and treated with drugs to be tested. Control group received the vehicle used to dissolve drugs. Mice (five per group) were placed in a plastic cage. On day 8, ear thickness was determined after challenge using a caliper. Results are expressed as absolute ear thickness.
Fresh drug suspensions of compound 6 were prepared immediately before use in a vehicle consisting of petrolatum plus 5% lauric acid and given in a volume of 20 μL/mouse. Mice were treated with different concentrations of compound 6 or vehicle together with DNFB challenge on […].
Compound 6 and the reported β-lactone NAAA inhibitor (S)-OOPP (Solorzano et al., Proceedings of the National Academy of Science USA 2009, 106, 20966-20971; Solorzano et al., Journal of Medicinal Chemistry 2010, 53, 5770-5781) were tested in this model for their contact sensitivity response. Fresh drug solutions of (S)-OOPP and compound 6 were prepared immediately before use in polyethylene glycol 400 (PEG 400) and given in a volume of 20 μL/ear. Mice were treated with different concentrations of (S)-OOPP, 0.1% compound 6 or vehicle each day for 7 days. Ear thickness was determined on day 0 and every day before challenge using a caliper. Results are expressed as absolute ear thickness.
The methods included the following. Dermatitis was produced in mice using 2-4 dinitrofluorobenzene (DNFB) as described by Buckley and Nijkamp (1994), Am J Respir Grit Care Med 149:400-7. Mice were sensitized on two consecutive days with a 0.5% DNFB solution applied to the shaved abdomen. At day 8, the ears were challenged with a 0.2% DNFB solution. Ear thickness was determined by using a micrometer. Scratching was evaluated as number of episodes per 60 minutes period. Data were analysed by ANOVA followed by the Bonferroni's test. See also Hargreaves K, et al (1988), Pain 32: 77-88 for related information.

For data set [1], the system named is IL-4, IL-5, IFN-g, and IgE blood levels. The data set is described as follows: Immune response in DNFB-induced dermatitis. The settings on record: mice, topical. The format is in vivo, mouse. Here is the method:
The methods include the following. Dermatitis in mice was induced with 2-4 Dinitrofluorobenzene (DNFB) as previously described. IL-4, IL-5, IFN-g, and IgE blood levels were determined by immunoassays. The effect of compound 6 was tested using a single treatment protocol.

Another data set deals with h-NAAA (Homo sapiens (Human), UniProt Q02083). The data set is described as follows: UPLC/MS h-NAAA assay. The format is biochemical. Here is the method:
NAAA protein preparation (10 μg) was pre-incubated with various concentrations of test compound or vehicle control in 100 mM NaH2PO4, 100 mM Tri Sodium Citrate Dehydrate, 0.1% Triton-X 100, 3 mM DTT, pH 4.5 for 30 min at 37° C. Duplicate samples were then incubated with 50 μM C17:1 10-cis-heptadecenoylethanolamide (Avanti Polar Lipids, Alabaster, Ala.—USA) at 37° C. for 30 minutes. The reaction was terminated by the addition of 0.2 mL of cold methanol containing 1 nmol of heptadecanoic acid (NuChek Prep, Elysian, Minn.—USA) as internal standard. Samples were then analyzed by UPLC/MS. Heptadecenoic and heptadecanoic acids were eluted on an Acquity UPLC BEH C18 column (50 mm length, 2.1 mm i.d., 1.7 μm pore size, Waters) isocratically at 0.5 mL/min for 1.5 min with a solvent mixture of 95% methanol and 5% water, both containing 0.25% Acetic Acid and 5 mM Ammonium Acetate. The column temperature was 40° C. Electrospray ionization was in the negative mode, capillary voltage was 2.7 kV, cone voltage was 45 V, extractor voltage was 3 V. The source temperature was 150° C. with a desolvation temperature of 400° C. N2 was used as drying gas at a cone flow of 100 L/hour and a desolvation flow of […]. The [M−H]-ion was monitored in the selected-ion monitoring mode (m/z values: heptadecenoic acid 267.37, heptadecanoic acid 269.37). Calibration curves were generated using commercial heptadecenoic acid (NuCheck Prep) Inhibition of NAAA activity was calculated as reduction of heptadecenoic acid in the samples compared to vehicle controls. IC50 values were calculated by non-linear regression analysis of log [concentration]/inhibition curves using GraphPad Prism 5 (GraphPad Software Inc., CA—USA) applying a standard slope curve fitting.

The test system of data set [2] is skin integrity (ear thickness, histopathology). The settings on record: in vivo. Here is the method:
The methods included the following. Drug or vehicle were given topical to both ears of CD1 mice for 14 days. Ear thickness was determined by using a micrometer. Histopathological analyses were conducted on formalin-fixed, paraffin-embedded ear sections […] thick and stained with Hematoxylin-Eosin. Epidermal thickness was measured with standard morphometric methods from 12 different samplings spanning the treated area of each ear. Data were analysed by ANOVA followed by Bonferroni's test for multiple comparisons.

[3] abbreviates: established DNFB-induced ear edema.
Setting [4] is: repeated dosing, 8 days before DNFB challenge.

Entries after “also recorded” stand apart in the source; their conditions may differ. Read-outs that look alike come from different tables or passages of the source.

The record followed here is US9353075B2, “Disubstituted beta-lactones as inhibitors of N-acylethanolamine acid amidase (NAAA)” (The Regents of the University of California, priority 2011, dated 2016).

Chain of h-NAAA (Q02083 29-359): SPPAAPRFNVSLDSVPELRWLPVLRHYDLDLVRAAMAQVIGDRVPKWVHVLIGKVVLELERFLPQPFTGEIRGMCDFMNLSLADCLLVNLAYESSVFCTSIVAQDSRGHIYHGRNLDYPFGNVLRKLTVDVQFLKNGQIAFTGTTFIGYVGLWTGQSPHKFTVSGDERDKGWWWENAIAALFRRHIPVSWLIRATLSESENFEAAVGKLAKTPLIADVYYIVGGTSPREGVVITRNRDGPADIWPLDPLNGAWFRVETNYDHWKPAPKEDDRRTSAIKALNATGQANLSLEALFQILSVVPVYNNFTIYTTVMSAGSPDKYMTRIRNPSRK

For `C[C@@H]1OC(=O)[C@@H]1NC(=O)OCCCCCc1ccccc1` [Example 6, 5-phenylpentyl-[(2S,3R)-2-methyl-4-oxooxetan-3-yl]-carbamate], in the data set with DNFB-induced dermatitis (setting [3]), the “Doses of full efficacy, single dosing protocol” value is reported as 10-30%; the “Effective dose-range, repeated dosing protocol” value was 0.01-1%; the “Time of administration to full efficacy, repeated dosing” value was 3 days. In addition, the “Ear swelling 24 h after DNFB challenge” value in the data set on DNFB-induced dermatitis (mice, 1-30% w/w suspension in petrolatum plus 5% lauric acid) is on record as “dose-dependently inhibited ear swelling”. The “Contact sensitivity response (ear swelling)” value in the data set with DNFB-induced dermatitis (mice, PEG 400 solution, each day for 7 days, (S)-OOPP 0.1-10% w/v, compound 6 0.1%) is recorded as “significant decrease in ear swelling”. Moreover, the “Established DNFB-induced ear edema (therapeutic effect), repeated dosing” value in the data set with DNFB-induced dermatitis (mice, topical, repeated dosing) is recorded as “reverses ear thickness increase; also recorded: reverses established DNFB-induced ear edema”. Moreover, the “Established DNFB-induced ear thickness increase, single dosing” value in the data set on DNFB-induced dermatitis (mice, topical, single administration) is listed as “reverses ear thickness increase; also recorded: efficacy is also noted”. Also, in the data set on DNFB-induced dermatitis (setting [4]), the “Doses of complete efficacy, prophylactic protocol” value is recorded as 0.1-1% and the “Prevention of DNFB-induced ear edema (prophylactic effect)” value is listed as “prevents the development of DNFB-induced symptoms; also recorded: prevents DNFB-induced increased ear edema”. Also, in data set [1], the “Dose range of full efficacy on immune response, single administration” value was in the range of 1 to 30%; the “Effect on immune response compared with steroids” value is given as “superior to that of steroids”; the “Immunological responses in DNFB dermatitis” value is “normalizes compromised immunological responses”. In addition, in data set [1] (single dosing), the “DNFB-induced IFN-γ decrease” value is listed as “reverses DNFB-induced IFN-γ decrease”, the “DNFB-induced IL-4 increase” value is “reverses DNFB-induced IL-4 increase”, the “DNFB-induced IL-5 increase” value was “reverses DNFB-induced IL-5 increase” and the “DNFB-induced IgE increase” value is “reverses DNFB-induced IgE increase”. Also, the IC50 (commonly the concentration that gives 50% inhibition) on h-NAAA is 7 nM. For the same molecule, in data set [2] (CD1, mouse, 14 days), the “Cellular architecture, histopathological and morphometric analysis” value was “but not compound 6, altered cellular architecture”; the “Skin atrophy (decrease of ear thickness)” value is given as “but not compound 6, causes skin atrophy”. Further, in data set [2] (mouse), the “Cellular architecture, histopathological and morphometric analysis” value is “no alterations of cellular structure”; the “Skin atrophy (decrease of ear thickness)” value is reported as “did not affect skin integrity”.
